The text below walks through data of patent US12486240B2, “Oxadiazole compounds for controlling or preventing phytopathogenic fungi” (PI INDUSTRIES LTD., priority 2019, dated 2025).

SMILES strings stand for the structures.

In the first assay the test system is Rhizoctonia solani. Description: Rhizoctonia solani mycelial radial growth test on potato dextrose agar. The format is cell-based. The following applies: 300 ppm, 25° C., 60% relative humidity, seven days.
With `CCN(C)c1c(Nc2ccc(-c3noc(C(F)(F)F)n3)cc2)c(=O)c1=O` [Compound 3, 3-(ethyl(methyl)amino)-4-((4-(5-(trifluoromethyl)-1,2,4-oxadiazol-3-yl)phenyl)amino)cyclobut-3-ene-1,2-dione], the “control (radial growth compared to untreated control)” value is reported as not below 70%.

The next assay concerns Botrytis cinerea. As to the kind of experiment: Botrytis cinerea mycelial radial growth test on potato dextrose agar. The format is cell-based. The conditions noted are these: 300 ppm, 22° C., 90% relative humidity, seven days.
Turning to `COCCN(C)c1c(Nc2ccc(-c3noc(C(F)(F)F)n3)cc2)c(=O)c1=O` [Compound 7, 3-((2-methoxyethyl)(methyl)amino)-4-((4-(5-(trifluoromethyl)-1,2,4-oxadiazol-3-yl)phenyl)amino)cyclobut-3-ene-1,2-dione], the “control (radial growth compared to untreated control)” value is on record as not below 70%.

Another assay concerns Phakopsora pachyrhizi. Description: Phakopsora pachyrhizi test on soybean (preventive spray). The format is in vivo. The following applies: preventive spray on soybean plants, inoculated one day after treatment, rated 3, 7, 10 and 15 days after application, read-out: Efficacy (% control) from disease severity rating versus untreated control. Here is the method:
Example 5: Phakopsora pachyrhizi Test on Soybean Compounds were dissolved in 2% dimethyl sulfoxide/acetone and then mixed with water containing an emulsifier to a calibrated spray volume of 50 mL. This 50 mL spray solution was poured into spray bottles for further applications. To test the preventive activity of compounds, healthy young Soybean plants raised in the greenhouse were sprayed with the active compound preparation at the stated application rates inside the spray cabinets using hollow cone nozzles. One day after treatment, the plants were inoculated with a spore suspension containing 2×10^5 Phakopsora pachyrhizi conidia. The inoculated plants were then kept in a greenhouse chamber at 22-24° C. temperature and 80-90% relative humidity for disease expression. A visual assessment of the compound's performance was carried out by rating the disease severity (0-100% scale) on treated plants 3, 7, 10 and 15 days after application. Efficacy (% control) of the compounds was calculated by comparing the disease rating in the treatment with the one of the untreated control. The sprayed plants were also assessed for plant compatibility by recording symptoms like necrosis, chlorosis and stunting.
Take `COC1CCN(c2c(N(C)Cc3ccc(-c4noc(C(F)(F)F)n4)cc3)c(=O)c2=O)C1` (stereo not shown) [Compound 54, 3-(3-methoxypyrrolidin-1-yl)-4-(methyl(4-(5-(trifluoromethyl)-1,2,4-oxadiazol-3-yl)benzyl)amino)cyclobut-3-ene-1,2-dione]: the pest or weed control at 500 ppm was not below 70%.

Turning to `C=CCN(C)c1c(Nc2ccc(-c3noc(C(F)(F)F)n3)cc2)c(=O)c1=O` [Compound 14, 3-(allyl(methyl)amino)-4-((4-(5-(trifluoromethyl)-1,2,4-oxadiazol-3-yl)phenyl)amino)cyclobut-3-ene-1,2-dione], the pest or weed control at 500 ppm was not below 70%.

For the compound `O=c1c(NCc2ccc(-c3noc(C(F)(F)F)n3)cc2)c(N2CCC(F)(F)C2)c1=O` [Compound 33, 3-(3,3-difluoropyrrolidin-1-yl)-4-((4-(5-(trifluoromethyl)-1,2,4-oxadiazol-3-yl)benzyl)amino)cyclobut-3-ene-1,2-dione], the pest or weed control at 500 ppm is not below 70%.

Turning to `CCN(C)c1c(N(C)Cc2ccc(-c3noc(C(F)(F)F)n3)cc2)c(=O)c1=O` [Compound 53, 3-(ethyl(methyl)amino)-4-(methyl(4-(5-(trifluoromethyl)-1,2,4-oxadiazol-3-yl)benzyl)amino)cyclobut-3-ene-1,2-dione], the pest or weed control at 500 ppm was not below 70%.

In the case of `CN(Cc1ccc(-c2noc(C(F)(F)F)n2)cc1)c1c(N2CCC2)c(=O)c1=O` [Compound 47, 3-(azetidin-1-yl)-4-(methyl(4-(5-(trifluoromethyl)-1,2,4-oxadiazol-3-yl)benzyl)amino)cyclobut-3-ene-1,2-dione], the pest or weed control at 500 ppm was not below 70%.

Regarding `CCN(C)c1c(Nc2ccc(-c3noc(C(F)(F)F)n3)cc2)c(=O)c1=O` [Compound 3, 3-(ethyl(methyl)amino)-4-((4-(5-(trifluoromethyl)-1,2,4-oxadiazol-3-yl)phenyl)amino)cyclobut-3-ene-1,2-dione], the pest or weed control at 500 ppm is not below 70%.

Regarding `COC1CN(c2c(N(C)Cc3ccc(-c4noc(C(F)(F)F)n4)cc3)c(=O)c2=O)C1` [Compound 45, 3-(3-methoxyazetidin-1-yl)-4-(methyl(4-(5-(trifluoromethyl)-1,2,4-oxadiazol-3-yl)benzyl)amino)cyclobut-3-ene-1,2-dione], the pest or weed control at 500 ppm is not below 70%.

Consider `O=c1c(NCc2ccc(-c3noc(C(F)(F)F)n3)cc2)c(N2CC(O)C2)c1=O` [Compound 32, 3-(3-hydroxyazetidin-1-yl)-4-((4-(5-(trifluoromethyl)-1,2,4-oxadiazol-3-yl)benzyl)amino)cyclobut-3-ene-1,2-dione], for which the pest or weed control at 500 ppm is not below 70%.

As to `CN(Cc1ccc(-c2noc(C(F)(F)F)n2)cc1)c1c(N2CCCC2)c(=O)c1=O` [Compound 44, 3-(methyl(4-(5-(trifluoromethyl)-1,2,4-oxadiazol-3-yl)benzyl)amino)-4-(pyrrolidin-1-yl)cyclobut-3-ene-1,2-dione], the pest or weed control at 500 ppm was not below 70%.

Take `COCCN(C)c1c(Nc2ccc(-c3noc(C(F)(F)F)n3)cc2)c(=O)c1=O` [Compound 7, 3-((2-methoxyethyl)(methyl)amino)-4-((4-(5-(trifluoromethyl)-1,2,4-oxadiazol-3-yl)phenyl)amino)cyclobut-3-ene-1,2-dione]: the pest or weed control at 500 ppm is not below 70%.

In the case of `CN(Cc1ccccc1)c1c(Nc2ccc(-c3noc(C(F)(F)F)n3)cc2)c(=O)c1=O` [Compound 1, 3-(benzyl(methyl)amino)-4-((4-(5-(trifluoromethyl)-1,2,4-oxadiazol-3-yl)phenyl)amino)cyclobut-3-ene-1,2-dione], the pest or weed control at 500 ppm was not below 70%.

`COc1c(Nc2ccc(-c3noc(C(F)(F)F)n3)cc2)c(=O)c1=O` [Compound 2, 3-methoxy-4((4-(5-(trifluoromethyl)-1,2,4-oxadiazol-3-yl)phenyl)amino)cyclobut-3-ene-1,2-dione]: the pest or weed control at 500 ppm was not below 70%.

For the compound `CN(Cc1ccc(-c2noc(C(F)(F)F)n2)cc1)c1c(N2CC(C#N)C2)c(=O)c1=O` [Compound 46, 1-(2-(methyl(4-(5-(trifluoromethyl)-1,2,4-oxadiazol-3-yl)benzyl)amino)-3,4-dioxocyclobut-1-en-1-yl)azetidine-3-carbonitrile], the pest or weed control at 500 ppm was not below 70%.

Turning to `O=c1c(Nc2ccc(-c3noc(C(F)(F)F)n3)cc2)c(N2CCOCC2)c1=O` [Compound 4, 3-morpholino-4((4-(5-(trifluoromethyl)-1,2,4-oxadiazol-3-yl)phenyl)amino)cyclobut-3-ene-1,2-dione], the pest or weed control at 500 ppm is not below 70%.
